Source: patent US20230033849A1, “CBD SUNSCREEN FORMULATIONS AND USES THEREOF” (JUPITER WELLNESS, INC., priority 2021, published 2023)

Tests used:
[1] = system: Human primary epidermal keratinocytes (ATCC PCS 200-011); test: MTT cell viability assay of keratinocytes after UVB irradiation; assay type: cell-based; details: CBD 1 μM, 4 μM and 8 μM for 1 hour before UVB, 10 seconds (approximately 60 mJ/cm^2), cells not treated with CBD 17%
Experimental: (§1) Human primary epidermal melanocytes (ATCC PCS200-013) and keratinocytes (ATCC PCS 200-011) cell-lines were cultured using serum free complete growth media (ATCC PCS 200-030). Cells were cultured at 37 C.° with 5% CO2. Cells were grown to 80% confluence before being washed with PBS buffer (37° C.) and trypsinized with EDTA-trypsin. A small aliquot of cells was stained with Trypan blue and counted using a haemocytometer. The remaining cells were plated in a 24 well plate with 300 uL of complete growth media (ATCC) for UV experimentation. Approximately 27*10^3 cells were added to each well. Twenty-four hours after inoculation, individual wells were treated with one of three different concentrations of CBD isolate (CBD Brands, Jupiter, Fla.) or left untreated (control). The concentrations of CBD used were 1 μM, 4 μM and 8 μM, respectively.
After CBD treatment for 1 hour, all cells were washed and with chilled (4° C.) PBS buffer. […] Exposure times were determined prior to the experiment, empirically, by exposing different wells to increasing UV exposure time and next conducting an MTT assay. […] The chosen exposure time was based on the exposure time that led to greater than 40% cell viability versus untreated cells determined by MTT assay. […] After exposure the effect of CBD on cell viability was evaluated by an MTT assay. […]

[2] = system: Human primary epidermal melanocytes (ATCC PCS200-013); test: MTT cell viability assay of melanocytes after UVB irradiation; assay type: cell-based; details: Melanocyte, light or radiation study, approximately 60 mJ/cm^2, 0 μM control 16%, read-out: viability after UV irradiation
Experimental: as §1
After CBD treatment for 1 hour, all cells were washed and with chilled (4° C.) PBS buffer. UV exposure experiments were conducted in chilled PBS buffer to avoid heat stress. Cells were irradiated with UVB light (Dermalight 80, UVB lamp). The distance of the lamp to the wells of the plate was kept constant at 3 cm. Exposure times were determined prior to the experiment, empirically, by exposing different wells to increasing UV exposure time and next conducting an MTT assay. […] The chosen exposure time was based on the exposure time that led to greater than 40% cell viability versus untreated cells determined by MTT assay. CBD treated cells were exposed to UV light for this predetermined time of 10 seconds (approximately 60 mJ/cm^2). After exposure the effect of CBD on cell viability was evaluated by an MTT assay. Control cells were cultured in parallel with no CBD treatment, but underwent UVB irradiation.

C=C(C)[C@@H]1CCC(C)=C[C@H]1c1c(O)cc(CCCCC)cc1O [CBD, cannabidiol]
cell viability after irradiation with UVB [1]: dose dependent increase in cell viability
viability at 1 µM ([2]; 1 μM CBD for 1 hour before UVB): 48%
viability at 4 µM ([2]; 4 μM CBD for 1 hour before UVB): 65%
viability at 8 µM ([2]; 8 μM CBD for 1 hour before UVB): 12%
